Assay results: patent publication US12708676B2, “Phosphate compounds for detecting neurological disorders” (Amydis, Inc., priority 2018, dated 2026)

Experiments:
[1] = target: amyloid deposits associated with CAA (Homo sapiens, UniProt P05067); assay: Example 8: ex vivo staining of human CAA brain tissue; assay type: binding
Text: Post-mortem brain tissue from patients diagnosed with CAA were examined to de-risk the translation from the limited robust preclinical animal models to humans. This study was designed to understand the fundamental basis of fluorescently detecting amyloids using human tissue. […] Human CAA brain tissue and healthy control brain tissue was acquired (University of California, San Diego, CA). […] All CAA patients were female and ranged in age from 70-93 years. Control brains were obtained from cognitively normal patients that ranged in age from 82-94 years from both male and female donors.

Aβ plaques = Aβ plaques (Homo sapiens, UniProt P05067); assay: Example 7: ex vivo staining of human Alzheimer's disease tissue, co-localization with 6E10
aggregated Aβ = aggregated Aβ (Homo sapiens, UniProt P05067); assay: Fluorescent detection of Aβ in vitro; assay type: binding
Sequence of aggregated Aβ (P05067 672-711 limits assumed): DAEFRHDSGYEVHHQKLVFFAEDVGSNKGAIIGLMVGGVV

Sequence of Aβ plaques (P05067 672-713 limits assumed): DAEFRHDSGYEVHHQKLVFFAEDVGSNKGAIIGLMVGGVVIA
Sequence of amyloid deposits associated with CAA (P05067 672-711 limits assumed): as the sequence (P05067 672-711 limits assumed) above

N#C/C(=C\c1ccc2cc(N3CCCCC3)ccc2c1)C(=O)NCCOCCOCCO [Compound 7, (E)-2-cyano-N-(2-(2-(2-hydroxyethoxy)ethoxy)ethyl)-3-(6-(piperidin-1-yl)naphthalen-2-yl)acrylamide]
Staining ([1]; healthy control human brains): absent
Staining of amyloid deposits ([1]; human CAA brains): successfully stains amyloid deposits associated with CAA
Binding to Aβ plaques in human tissue (Aβ plaques; brain and retinal tissue of human Alzheimer's patients): bind to Aβ plaques in both brain and retinal tissue
Detection of aggregated Aβ ex vivo (Aβ plaques; ex vivo, human Alzheimer's brain tissue): demonstrated the ability to detect aggregated Aβ
Detection of aggregated Aβ in vitro (aggregated Aβ): demonstrated the ability to detect aggregated Aβ
